Measured values taken from publication PMC12951562, “SH2scan: Mapping SH2 Domain-Ligand Binding Selectivity for Inhibitors and Degraders” (Journal of Medicinal Chemistry, 2026).
Numbering of substitutions follows the chain as printed. Non-standard residues stand in square brackets, D forms with d. Residues, ends and D or L forms follow the SMILES beside them. pY = N[C@@H](Cc1ccc(OP(=O)(O)O)cc1)C(=O)O

What was measured:
Experiment in all cases: biochemical
Assay type in all cases: binding
STAT6 = target: T1, STAT6 (Homo sapiens, UniProt P42226)
T1 construct: made in house; host or cells: HEK293 (transient transfection), unpurified extract
T1 sequence (P42226 1-847): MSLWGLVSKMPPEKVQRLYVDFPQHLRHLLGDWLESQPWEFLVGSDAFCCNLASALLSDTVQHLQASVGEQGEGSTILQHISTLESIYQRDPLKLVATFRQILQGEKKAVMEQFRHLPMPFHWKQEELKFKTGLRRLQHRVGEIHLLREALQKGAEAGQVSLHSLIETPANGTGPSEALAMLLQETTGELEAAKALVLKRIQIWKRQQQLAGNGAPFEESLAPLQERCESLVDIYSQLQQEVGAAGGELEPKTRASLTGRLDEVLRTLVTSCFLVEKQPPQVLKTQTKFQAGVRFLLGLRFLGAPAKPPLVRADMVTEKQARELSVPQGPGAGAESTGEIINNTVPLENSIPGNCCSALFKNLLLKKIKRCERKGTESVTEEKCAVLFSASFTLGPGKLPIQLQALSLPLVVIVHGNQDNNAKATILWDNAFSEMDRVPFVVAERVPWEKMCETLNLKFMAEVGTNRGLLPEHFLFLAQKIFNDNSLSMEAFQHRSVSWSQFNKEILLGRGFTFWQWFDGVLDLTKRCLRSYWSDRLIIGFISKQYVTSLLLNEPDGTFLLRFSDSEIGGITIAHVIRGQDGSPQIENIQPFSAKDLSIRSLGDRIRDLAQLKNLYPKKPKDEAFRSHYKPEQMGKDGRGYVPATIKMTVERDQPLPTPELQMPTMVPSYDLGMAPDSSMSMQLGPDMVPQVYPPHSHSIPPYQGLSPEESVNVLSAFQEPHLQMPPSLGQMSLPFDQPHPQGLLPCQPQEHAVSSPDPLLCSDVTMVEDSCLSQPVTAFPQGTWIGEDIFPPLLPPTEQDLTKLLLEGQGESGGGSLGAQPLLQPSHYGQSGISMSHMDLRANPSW

STAT5B = target: T2, STAT5B (Homo sapiens, UniProt P51692)
T2 construct: made in house; host or cells: HEK293 (transient transfection), unpurified extract
T2 sequence (P51692 1-787): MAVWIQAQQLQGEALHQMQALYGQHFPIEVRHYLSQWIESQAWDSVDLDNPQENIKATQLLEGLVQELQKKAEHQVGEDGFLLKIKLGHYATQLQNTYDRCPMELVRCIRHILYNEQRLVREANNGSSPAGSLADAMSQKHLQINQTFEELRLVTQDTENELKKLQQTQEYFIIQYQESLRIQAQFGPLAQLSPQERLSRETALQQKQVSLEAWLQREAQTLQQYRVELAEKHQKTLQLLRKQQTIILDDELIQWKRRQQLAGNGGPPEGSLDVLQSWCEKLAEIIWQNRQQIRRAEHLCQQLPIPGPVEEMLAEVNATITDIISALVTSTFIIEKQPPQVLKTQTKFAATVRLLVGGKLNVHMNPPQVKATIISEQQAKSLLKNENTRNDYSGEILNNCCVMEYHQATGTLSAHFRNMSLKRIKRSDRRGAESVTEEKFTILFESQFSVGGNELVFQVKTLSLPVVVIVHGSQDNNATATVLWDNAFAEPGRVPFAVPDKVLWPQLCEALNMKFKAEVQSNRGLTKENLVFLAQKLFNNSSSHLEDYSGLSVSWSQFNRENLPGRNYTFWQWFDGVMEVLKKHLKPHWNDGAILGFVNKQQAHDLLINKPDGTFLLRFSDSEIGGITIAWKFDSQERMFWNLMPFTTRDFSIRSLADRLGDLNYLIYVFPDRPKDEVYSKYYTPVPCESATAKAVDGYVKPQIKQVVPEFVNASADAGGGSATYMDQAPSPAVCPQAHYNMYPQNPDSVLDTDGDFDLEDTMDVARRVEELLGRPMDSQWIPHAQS

STAT5B(N642H) = target: T3, STAT5B(N642H) (Homo sapiens, UniProt P51692, N642H)
T3 construct: made in house; host or cells: HEK293 (transient transfection), unpurified extract
T3 sequence (P51692 1-787 N642H): T2 sequence (P51692 1-787) with N642H

FER = target: T4, FER (Homo sapiens, UniProt P16591)
T4 construct: the DNA-tagged SH2 domain concentrations used in this study were <0.1 nM; made in house; host or cells: HEK293 (transient transfection; unpurified extract)
T4 sequence (P16591 460-550 limits assumed): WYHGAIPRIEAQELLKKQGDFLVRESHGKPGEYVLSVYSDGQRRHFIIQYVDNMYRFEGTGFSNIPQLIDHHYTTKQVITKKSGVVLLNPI

STAT1 = target: T5, STAT1 (Homo sapiens, UniProt P42224)
T5 construct: made in house; host or cells: HEK293 (transient transfection), unpurified extract
T5 sequence (P42224 1-750): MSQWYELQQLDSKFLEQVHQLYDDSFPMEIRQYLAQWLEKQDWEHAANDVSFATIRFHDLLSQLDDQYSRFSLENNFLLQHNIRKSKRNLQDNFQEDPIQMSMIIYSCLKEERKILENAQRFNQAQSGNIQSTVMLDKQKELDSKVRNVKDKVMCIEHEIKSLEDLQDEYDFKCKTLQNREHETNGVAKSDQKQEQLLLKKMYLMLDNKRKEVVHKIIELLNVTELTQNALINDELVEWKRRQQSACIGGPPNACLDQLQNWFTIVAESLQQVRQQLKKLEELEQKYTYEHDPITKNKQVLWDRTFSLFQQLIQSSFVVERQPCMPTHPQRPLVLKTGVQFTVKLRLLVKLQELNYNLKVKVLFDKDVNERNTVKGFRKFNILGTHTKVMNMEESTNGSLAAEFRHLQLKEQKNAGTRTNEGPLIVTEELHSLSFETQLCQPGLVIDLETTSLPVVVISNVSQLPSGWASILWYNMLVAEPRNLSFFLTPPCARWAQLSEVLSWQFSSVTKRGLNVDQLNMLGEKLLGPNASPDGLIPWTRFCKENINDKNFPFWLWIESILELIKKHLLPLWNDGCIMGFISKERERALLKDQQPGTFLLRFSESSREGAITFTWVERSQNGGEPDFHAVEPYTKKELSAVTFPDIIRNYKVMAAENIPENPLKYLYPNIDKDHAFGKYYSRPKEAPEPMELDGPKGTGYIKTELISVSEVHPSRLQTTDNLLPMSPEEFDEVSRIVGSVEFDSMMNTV

PIK3R1(SH2dom.C-term.) = target: T6, PIK3R1(SH2dom.C-term.) (Homo sapiens, UniProt P27986)
T6 construct: SH2dom.C-term. denotes SH2 domain closest to C-terminus of protein; made in house; host or cells: HEK293 (transient transfection, unpurified extract)
T6 sequence (P27986 624-718 limits assumed): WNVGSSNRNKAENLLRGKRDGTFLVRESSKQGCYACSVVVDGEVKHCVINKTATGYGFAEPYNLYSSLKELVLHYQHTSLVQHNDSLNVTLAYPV

PIK3R3(SH2dom.C-term.) = target: T7, PIK3R3(SH2dom.C-term.) (Homo sapiens, UniProt Q92569)
T7 construct: SH2dom.C-term. denotes SH2 domain closest to C-terminus of protein; made in house; host or cells: HEK293 (transient transfection, unpurified extract)

PIK3R2(SH2dom.C-term.) = target: T8, PIK3R2(SH2dom.C-term.) (Homo sapiens, UniProt O00459)
T8 construct: SH2dom.C-term. denotes SH2 domain closest to C-terminus of protein; made in house; host or cells: HEK293 (transient transfection, unpurified extract)
T8 sequence (O00459 622-716 limits assumed): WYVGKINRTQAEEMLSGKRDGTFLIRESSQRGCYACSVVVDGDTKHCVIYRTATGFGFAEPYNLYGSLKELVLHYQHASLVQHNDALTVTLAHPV

ABL1 = target: T9, ABL1 (Homo sapiens, UniProt P00519)
T9 construct: the DNA-tagged SH2 domain concentrations used in this study were <0.1 nM; made in house; host or cells: HEK293 (transient transfection; unpurified extract)
T9 sequence (P00519 127-217 limits assumed): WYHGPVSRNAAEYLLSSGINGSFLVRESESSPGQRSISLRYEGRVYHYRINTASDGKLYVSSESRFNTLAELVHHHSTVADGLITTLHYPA

STAT4 = target: T10, STAT4 (Homo sapiens, UniProt Q14765)
T10 construct: made in house; host or cells: HEK293 (transient transfection), unpurified extract
T10 sequence (Q14765 1-748): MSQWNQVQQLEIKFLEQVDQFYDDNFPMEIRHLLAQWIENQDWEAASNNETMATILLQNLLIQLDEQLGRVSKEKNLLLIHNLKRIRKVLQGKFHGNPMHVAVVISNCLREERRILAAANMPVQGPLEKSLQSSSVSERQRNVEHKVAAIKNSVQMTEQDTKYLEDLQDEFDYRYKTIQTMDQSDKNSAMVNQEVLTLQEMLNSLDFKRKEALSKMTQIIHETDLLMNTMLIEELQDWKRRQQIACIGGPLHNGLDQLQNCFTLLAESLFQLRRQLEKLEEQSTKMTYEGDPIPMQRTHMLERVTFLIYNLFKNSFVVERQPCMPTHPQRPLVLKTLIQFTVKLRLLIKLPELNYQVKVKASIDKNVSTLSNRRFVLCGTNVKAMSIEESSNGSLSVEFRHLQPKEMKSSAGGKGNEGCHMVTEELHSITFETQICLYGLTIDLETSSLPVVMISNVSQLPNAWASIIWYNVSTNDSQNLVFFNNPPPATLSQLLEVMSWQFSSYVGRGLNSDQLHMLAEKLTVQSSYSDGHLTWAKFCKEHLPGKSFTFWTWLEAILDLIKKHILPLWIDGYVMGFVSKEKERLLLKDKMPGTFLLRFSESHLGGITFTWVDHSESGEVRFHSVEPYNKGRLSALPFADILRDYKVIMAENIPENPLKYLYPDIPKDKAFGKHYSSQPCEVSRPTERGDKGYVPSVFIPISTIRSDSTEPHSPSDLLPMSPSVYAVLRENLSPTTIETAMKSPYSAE

Question: With CC[C@H](C)[C@H](NC(=O)[C@H](CC(C)C)NC(=O)[C@H](CC(=O)O)NC(=O)[C@H](CCC(N)=O)NC(=O)[C@H](Cc1ccccc1)NC(=O)[C@@H]1CCCN1C(=O)[C@H](CCCCN)NC(=O)[C@H](Cc1ccc(OP(=O)(O)O)cc1)NC(C)=O)C(N)=O (Ac-[pY]KPFQDLI-NH2) as the compound, how does the Kd (STAT6) read?
Answer: The Kd was 928 ± 249 nM.

Question: With CC(C)C[C@H](NC(=O)[C@H](Cc1c[nH]c2ccccc12)NC(=O)[C@H](CCCCN)NC(=O)[C@H](CC(=O)O)NC(=O)[C@H](CC(C)C)NC(=O)[C@@H](NC(=O)[C@H](CC(C)C)NC(=O)[C@H](Cc1ccc(OP(=O)(O)O)cc1)NC(=O)[C@@H](NC(=O)[C@H](CC(=O)O)NC(=O)[C@@H](N)CCC(N)=O)[C@@H](C)O)C(C)C)C(=O)O (H-QDT[pY]LVLDKWL-OH) as the compound, how does the Kd (STAT5B) read?
Answer: Its Kd is 1020 ± 179 nM.

Question: What about the Kd (STAT5B(N642H)) of the same compound?
Answer: Its Kd is 97.8 ± 43.3 nM.

Question: Which Kd (FER) does the source give for CC(=O)N[C@@H](CC(=O)O)C(=O)N[C@@H](CCC(=O)O)C(=O)N[C@@H](Cc1ccc(OP(=O)(O)O)cc1)C(=O)N[C@@H](CCC(=O)O)C(=O)N[C@@H](CC(N)=O)C(=O)N[C@H](C(=O)N[C@@H](CC(=O)O)C(N)=O)C(C)C [Ac-DEpYENVD-NH2] (Ac-DE[pY]ENVD-NH2) here?
Answer: Its Kd is 7770 ± 2130 nM.

Question: CC(=O)NCC(=O)N[C@@H](Cc1ccc(OP(=O)(O)O)cc1)C(=O)N[C@@H](CC(=O)O)C(=O)N[C@@H](CCCCN)C(=O)N1CCC[C@H]1C(=O)N[C@@H](Cc1c[nH]cn1)C(=O)N[C@H](C(=O)N[C@@H](CC(C)C)C(N)=O)C(C)C [Ac-GpYDKPHVL-NH2] (Ac-G[pY]DKPHVL-NH2) was tested. Which Kd (STAT1) did it give?
Answer: The Kd was 155 ± 38.2 nM.

Question: How did the Kd (PIK3R1(SH2dom.C-term.)) turn out when CSCC[C@H](NC(=O)[C@@H]1CCCN1C(=O)[C@@H](NC(=O)[C@H](Cc1ccc(OP(=O)(O)O)cc1)NC(=O)CNC(C)=O)C(C)C)C(=O)N[C@@H](CC(C)C)C(=O)O [Ac-GpYVPML-OH] (Ac-G[pY]VPML-OH) was run?
Answer: Its Kd is 4.24 ± 0.48 nM.

Question: What about the Kd (PIK3R3(SH2dom.C-term.)) of the same compound?
Answer: Its Kd is 2.27 ± 0.32 nM.

Question: What about the Kd (PIK3R2(SH2dom.C-term.)) of the same compound?
Answer: Its Kd is 4.82 ± 1.95 nM.

Question: Which Kd (ABL1) does the source give for CC(=O)N[C@@H](CCCCN)C(=O)N[C@@H](CCC(=O)O)C(=O)N[C@@H](CCC(=O)O)C(=O)NCC(=O)N[C@@H](Cc1ccc(OP(=O)(O)O)cc1)C(=O)N[C@@H](CCC(=O)O)C(=O)N[C@@H](CC(C)C)C(=O)N1CCC[C@H]1C(=O)N[C@@H](Cc1ccc(O)cc1)C(=O)N[C@@H](CC(N)=O)C(=O)N1CCC[C@H]1C(N)=O [Ac-KEEGpYELPYNP-NH2] here?
Answer: The Kd was 28800 ± 8130 nM.

Question: With CSCC[C@H](NC(=O)[C@H](CC(=O)O)NC(=O)[C@H](Cc1ccc(OP(=O)(O)O)cc1)NC(=O)[C@H](CC(=O)O)NC(=O)[C@H](Cc1ccccc1)NC(=O)[C@H](CO)NC(C)=O)C(=O)N1CCC[C@H]1C(=O)N[C@@H](Cc1c[nH]cn1)C(=O)N[C@H](C(=O)N[C@@H](CC(C)C)C(N)=O)C(C)C [Ac-SFDpYDMPHVL-NH2] (Ac-SFD[pY]DMPHVL-NH2) as the compound, how does the Kd (STAT4) read?
Answer: Its Kd is 1280 ± 133 nM.
